Reference: patent US20130263298A1, “MODELS FOR DIAGNOSIS, PREVENTION AND TREATMENT OF ALZHEIMER'S DISEASE” (INDIGO CAPITAL GROUP LLC, priority 2012, published 2013)

Columns and labels:
[1] = test system: Glutathione; assay: Fluorometric Glutathione Assay (monochlorobimane) in supplement-fed flies; format: in vivo, Drosophila melanogaster; conditions: optimal dose (3x), 15 days feeding, compared to the control
Method: For the phase-III of the experiment, a new set of Drosophila melanogaster were bred for Western blot and Glutathione assays. […] Single, triple, and six times strength for each of the three supplements were added to 25 flies each in vials along with control for 15 days. The flies were then transferred to perform the Western Blot test to check for GCLc enzyme levels for each group. […] Glutathione Detection Kit from BioVision's ApoGSH was used for an in vitro assay for detection of total glutathione changes in tissue samples. The assay used monochlorobimane (MCB), a dye that appears to form an adduct exclusively with glutathione. […] The reaction was catalysed by glutathione S-transferase. Thus, the amount of total glutathione was detected using a fluorimeter. In an embodiments of the present invention, the kit contents included Cell Lysis Buffer—25 ml, Monochlorobimane (25 mM)—200 μl, GST Reagent (50 U/ml)-200 μl, and GSH Standard (1 mg; MW: 307)—1 Vial. Monochlorobimane was dissolved in DMSO and warmed at a temperature above 18° C. for use. After opening the kit, MCB, GST, and GSH were stored at −20° C. and Cell Lysis Buffer was stored at 4° C. The GSH standard was reconstituted with 100 μl dH2O to generate 10 μg/μl standard stock solution. […] Reading: […] The sample readings were applied to the standard curve to calculate total glutathione amount in each sample. […]

[2] = test system: GCLc enzyme; assay: Western Blot test for GCLc enzyme levels in supplement-fed flies; format: in vivo, Drosophila melanogaster; conditions: optimal dose (3x), 15 days feeding, compared to the control
Method: For the phase-III of the experiment, a new set of Drosophila melanogaster were bred for Western blot and Glutathione assays. […] Single, triple, and six times strength for each of the three supplements were added to 25 flies each in vials along with control for 15 days. The flies were then transferred to perform the Western Blot test to check for GCLc enzyme levels for each group. […] Details of the procedure for Western Blot are mentioned below. A western blot is a method that allows investigators to detect a specific protein in a given sample of tissue. The flies were frozen with dry ice, then standardized, lysis buffer added, homogenized and then centrifuged. The proteins were separated by their molecular weight ([…]) by SDS-PAGE, polyacrylamide gel electrophoresis. An 8% acryl amide gel was used. Smaller proteins migrate faster. Samples were loaded into the wells and a voltage of 150 Volts was applied. The proteins were transferred to a PVDF sheet of special blotting paper. The uniformity was checked by the Coomassie stain. […] A digital image of the western blot was captured using fluorescence and analysed.

[3] = test system: Drosophila melanogaster; assay: Phase-I lifespan of yellow-white Drosophila fed dietary supplements; format: in vivo; conditions: male yellow-white Drosophila, supplement at optimal RDA in diet; for increase in mean survival / longevity: vs. control (36 days)
Method: For the phase-I of the study, approximately 1200 male yellow-white Drosophila were bred, isolated and monitored on a daily basis. About 100 fruit flies were tested for each supplement, divided into four vials containing 25 flies each.
In an embodiment of the present invention, a mathematical formula was developed by the inventor for an optimal dosage: Recommended daily human dosage of each supplement per day, divided by 1,000,000 (average weight of a person 50 kg, average weight of 100 flies […]), multiplied by 2 as tubes are used initially for two days, multiplied by 100 as it is assumed only 1% of the food is consumed, multiplied by 4 as bulk food was made for 1 week/8 days. According to the formula, if 100 mg is the recommended human daily dosage of a supplement, the fly dose is 0.08 mg. This was considered optimal required daily allowance (RDA). The supplements were measured on the milligram gemological weighing machine and combined with the regular Drosophila diet (Carolina 424 media, yeast, water) in a temperature controlled insect culture incubator under optimal conditions. 50% survival was calculated by counting the flies that died and transferring the live flies into a different vial with newly made media every two days and near the end, every day. The observations were recorded, calculated, graphed and analysed. Two tailed t-tests were performed to test for statistical significance.

Structure (SMILES) | increase in glutathione [1] | increase in GCLc enzyme [2] | increase in mean survival / longevity [3] | mean survival ([3]; control 36 days)
Oc1ccc(C=Cc2cc(O)cc(O)c2)cc1 [Resveratrol] | 100% | 1% | 39% | 50 days
N[C@@H](CCC(=O)N[C@@H](CS)C(=O)NCC(=O)O)C(=O)O [Glutathione] | 154% | 7% | 11% | 
COC1=C(OC)C(=O)C(C/C=C(\C)CC/C=C(\C)CC/C=C(\C)CC/C=C(\C)CC/C=C(\C)CC/C=C(\C)CC/C=C(\C)CC/C=C(\C)CC/C=C(\C)CCC=C(C)C)=C(C)C1=O [Coenzyme Q10] |  |  | 11% | 
CC(=O)N[C@@H](CS)C(=O)O [NAC, N acetyl cysteine] |  |  | 28% | 
